In ChEMBL document CHEMBL3046696, “QSAR analysis of caffeoyl naphthalene sulfonamide derivatives as HIV-1 integrase inhibitors” (Med Chem Res, 2006):
One block for each compound: values may come before it.

Experiment: physchem
Conditions: octanol/water
Description: Octanol-water partition coefficient, log P of the compound

SMILES: O=C(/C=C/c1ccc(O)c(O)c1)Nc1cccc2c(S(=O)(=O)Nc3ccc(Cl)cc3)cccc12
logP: 3.71

SMILES: O=C(/C=C/c1ccc(O)c(O)c1)Nc1cccc2c(S(=O)(=O)Nc3ccc(Br)cc3)cccc12
logP: 4.14

SMILES: Cc1ccc(NS(=O)(=O)c2cccc3c(NC(=O)/C=C/c4ccc(O)c(O)c4)cccc23)cc1
logP: 4.13

SMILES: O=C(/C=C/c1ccc(O)c(O)c1)Nc1cccc2c(S(=O)(=O)Nc3cccc([N+](=O)[O-])c3)cccc12
logP: 4.57

SMILES: Cc1ccccc1NS(=O)(=O)c1cccc2c(NC(=O)/C=C/c3ccc(O)c(O)c3)cccc12
logP: 4.6

SMILES: CCCCc1cc(NC(=O)/C=C/c2ccc(OC(C)=O)c(OC(C)=O)c2)c2cccc(S(=O)(=O)Nc3ccccc3)c2c1
logP: 5.32

SMILES: CCCCN(c1ccc(F)cc1)S(=O)(=O)c1cccc2c(NC(=O)/C=C/c3ccc(OC(C)=O)c(OC(C)=O)c3)cccc12
logP: 5.12

SMILES: CC(=O)Oc1ccc(/C=C/C(=O)N(c2cccc3c(S(=O)(=O)Nc4ccccc4)cccc23)C(F)(F)F)cc1OC(C)=O
logP: 5.66

SMILES: CCc1ccc(N(C(=O)/C=C/c2ccc(OC(C)=O)c(OC(C)=O)c2)c2cc(C(F)(F)F)cc3c(S(=O)(=O)Nc4ccc(S(=O)(=O)CC)cc4)cccc23)cc1
logP: 7.34

SMILES: CC(=O)Oc1ccc(/C=C/C(=O)N(c2cccc3c(S(=O)(=O)Nc4cccc(C(F)(F)F)c4)cccc23)C(F)(F)F)cc1OC(C)=O
logP: 6.54

SMILES: CC(=O)Oc1ccc(/C=C/C(=O)N(c2cccc3c(S(=O)(=O)Nc4ccc(C(F)(F)F)cc4)cccc23)C(F)(F)F)cc1OC(C)=O
logP: 6.54

SMILES: CC(=O)Oc1ccc(/C=C/C(=O)Nc2cccc3c(S(=O)(=O)Nc4ccc(SC(F)(F)F)cc4)cccc23)cc1OC(C)=O
logP: 5.5

SMILES: CC(=O)Oc1ccc(/C=C/C(=O)Nc2cccc3c(S(=O)(=O)Nc4ccc(S(=O)(=O)C(F)(F)F)cc4)cccc23)cc1OC(C)=O
logP: 4.55

SMILES: CC(=O)Oc1ccc(/C=C/C(=O)N(SC(F)(F)F)c2cccc3c(S(=O)(=O)Nc4ccc(S(=O)(=O)C(F)(F)F)cc4)cccc23)cc1OC(C)=O
logP: 7.16

SMILES: CC(=O)Oc1ccc(/C=C/C(=O)N(c2cccc3c(S(=O)(=O)Nc4ccc(SC(F)(F)F)cc4)cccc23)S(=O)(=O)C(F)(F)F)cc1OC(C)=O
logP: 7.16

SMILES: CCS(=O)(=O)c1ccc(NS(=O)(=O)c2cccc3c(N(C(=O)/C=C/c4ccc(OC(C)=O)c(OC(C)=O)c4)S(=O)(=O)C(F)(F)F)cccc23)cc1
logP: 4.81

SMILES: CCS(=O)(=O)c1cc(NC(=O)/C=C/c2ccc(OC(C)=O)c(OC(C)=O)c2)c2cccc(S(=O)(=O)Nc3ccccc3)c2c1
logP: 3.15

SMILES: CCS(=O)(=O)N(C(=O)/C=C/c1ccc(OC(C)=O)c(OC(C)=O)c1)c1cccc2c(S(=O)(=O)Nc3ccccc3)cccc12
logP: 3.92

SMILES: CC(=O)Oc1ccc(/C=C/C(=O)N(c2cccc3c(S(=O)(=O)Nc4ccc(S(=O)(=O)C(F)(F)F)cc4)cccc23)C(F)(F)F)cc1OC(C)=O
logP: 6.03

SMILES: CC(=O)Oc1ccc(/C=C/C(=O)Nc2cccc3c(S(=O)(=O)NCCc4ccccc4)cccc23)cc1OC(C)=O
logP: 3.76

SMILES: O=C(/C=C/c1ccc(O)c(O)c1)Nc1cccc2c(S(=O)(=O)Nc3ccccc3)cccc12
logP: 4.46

SMILES: O=C(/C=C/c1ccc(O)c(O)c1)Nc1cccc2c(S(=O)(=O)NCc3ccccc3)cccc12
logP: 4.89

SMILES: O=C(/C=C/c1ccc(O)c(O)c1)Nc1cccc2c(S(=O)(=O)NCCc3ccccc3)cccc12
logP: 4.13

SMILES: O=C(/C=C/c1ccc(O)c(O)c1)Nc1cccc2c(S(=O)(=O)Nc3ccc(F)cc3)cccc12
logP: 4.57

SMILES: CC(=O)Oc1ccc(/C=C/C(=O)N(c2ccccc2)c2cccc3c(S(=O)(=O)Nc4ccccc4)cccc23)cc1OC(C)=O
logP: 5.59

SMILES: CCN(c1ccccc1)S(=O)(=O)c1cccc2c(N(C(=O)/C=C/c3ccc(OC(C)=O)c(OC(C)=O)c3)c3ccccc3)cc(C)cc12
logP: 6.65

SMILES: CCN(c1ccccc1)S(=O)(=O)c1cccc2c(N(C(=O)/C=C/c3ccc(OC(C)=O)c(OC(C)=O)c3)c3ccccc3)cccc12
logP: 6.18

Now from value to compound:

logP: 4.18
SMILES: CC(=O)Oc1ccc(/C=C/C(=O)Nc2cccc3c(S(=O)(=O)Nc4ccccc4C)cccc23)cc1OC(C)=O

logP: 5.03
SMILES: Cc1cccc(NS(=O)(=O)c2cccc3c(NC(=O)/C=C/c4ccc(O)c(O)c4)cccc23)c1C

logP: 4.86
SMILES: CC(=O)Oc1ccc(/C=C/C(=O)Nc2cccc3c(S(=O)(=O)Nc4cccc(C(C)C)c4)cccc23)cc1OC(C)=O

logP: 4.86
SMILES: CC(=O)Oc1ccc(/C=C/C(=O)Nc2cccc3c(S(=O)(=O)Nc4ccc(C(C)C)cc4)cccc23)cc1OC(C)=O

logP: 4.55
SMILES: CC(=O)Oc1ccc(/C=C/C(=O)Nc2cccc3c(S(=O)(=O)Nc4ccc(C(F)(F)F)cc4)cccc23)cc1OC(C)=O

logP: 4.55
SMILES: CC(=O)Oc1ccc(/C=C/C(=O)Nc2cccc3c(S(=O)(=O)Nc4ccccc4C(F)(F)F)cccc23)cc1OC(C)=O

logP: 3.15
SMILES: CCS(=O)(=O)c1ccc(NS(=O)(=O)c2cccc3c(NC(=O)/C=C/c4ccc(OC(C)=O)c(OC(C)=O)c4)cccc23)cc1

logP: 3.66
SMILES: CC(=O)Oc1ccc(/C=C/C(=O)Nc2cccc3c(S(=O)(=O)Nc4ccccc4)cccc23)cc1OC(C)=O

logP: 4.1
SMILES: CC(=O)Oc1ccc(/C=C/C(=O)Nc2cccc3c(S(=O)(=O)NCc4ccccc4)cccc23)cc1OC(C)=O

logP: 4.19
SMILES: CC(=O)Oc1ccc(/C=C/C(=O)Nc2cccc3c(S(=O)(=O)Nc4ccc(F)cc4)cccc23)cc1OC(C)=O

logP: 4.01
SMILES: CC(=O)Oc1ccc(/C=C/C(=O)Nc2cccc3c(S(=O)(=O)Nc4ccc(Cl)cc4)cccc23)cc1OC(C)=O

logP: 4.44
SMILES: CC(=O)Oc1ccc(/C=C/C(=O)Nc2cccc3c(S(=O)(=O)Nc4ccc(Br)cc4)cccc23)cc1OC(C)=O

logP: 3.8
SMILES: CC(=O)Oc1ccc(/C=C/C(=O)Nc2cccc3c(S(=O)(=O)Nc4ccc(C)cc4)cccc23)cc1OC(C)=O

logP: 4.24
SMILES: CC(=O)Oc1ccc(/C=C/C(=O)Nc2cccc3c(S(=O)(=O)Nc4cccc([N+](=O)[O-])c4)cccc23)cc1OC(C)=O

logP: 4.62
SMILES: CC(=O)Oc1ccc(/C=C/C(=O)Nc2cccc3c(S(=O)(=O)Nc4cccc(C)c4C)cccc23)cc1OC(C)=O

logP: 4.53
SMILES: CCc1ccccc1NS(=O)(=O)c1cccc2c(NC(=O)/C=C/c3ccc(OC(C)=O)c(OC(C)=O)c3)cccc12

logP: 4.53
SMILES: CCc1cccc(NS(=O)(=O)c2cccc3c(NC(=O)/C=C/c4ccc(OC(C)=O)c(OC(C)=O)c4)cccc23)c1

logP: 4.53
SMILES: CCc1ccc(NS(=O)(=O)c2cccc3c(NC(=O)/C=C/c4ccc(OC(C)=O)c(OC(C)=O)c4)cccc23)cc1

logP: 4.92
SMILES: CCCc1ccccc1NS(=O)(=O)c1cccc2c(NC(=O)/C=C/c3ccc(OC(C)=O)c(OC(C)=O)c3)cccc12

logP: 4.92
SMILES: CCCc1cccc(NS(=O)(=O)c2cccc3c(NC(=O)/C=C/c4ccc(OC(C)=O)c(OC(C)=O)c4)cccc23)c1

logP: 4.86
SMILES: CC(=O)Oc1ccc(/C=C/C(=O)Nc2cccc3c(S(=O)(=O)Nc4ccccc4C(C)C)cccc23)cc1OC(C)=O
